Laboratory results as given in ChEMBL document CHEMBL1133271, “Synthesis and biological property of carba and 20-deoxo analogues of arenastatin A” (Bioorg Med Chem Lett, 2000).
Converted amounts (≈) assume the structure as drawn.

test: Cytotoxicity of compound was determined against KB cells; format: functional, cell-based; conditions: Homo sapiens

For COc1ccc(C[C@H]2NC(=O)/C=C/C[C@@H]([C@H](C)C3OC3c3ccccc3)OC(=O)[C@H](CC(C)C)OCCNC2=O)cc1 (some centres undefined), which IC50 is on record?
Its IC50 is 40 ng/mL (≈ 69.1 nM).

Which IC50 does the source give for COc1ccc(C[C@H]2NC(=O)/C=C/C[C@@H]([C@H](C)C3OC3c3ccccc3)OC(=O)[C@H](CC(C)C)CC(=O)CCNC2=O)cc1 (some centres undefined) here?
The IC50 was 70 ng/mL (≈ 116 nM).

Which IC50 does the source give for COc1ccc(C[C@H]2NC(=O)/C=C/C[C@@H]([C@H](C)C3OC3c3ccccc3)OC(=O)[C@H](CC(C)C)NC(=O)CCNC2=O)cc1 (some centres undefined) here?
The IC50 was 6 ng/mL (≈ 9.91 nM).

For COc1ccc(C[C@H]2NC(=O)/C=C/C[C@@H]([C@H](C)[C@H]3O[C@@H]3c3ccccc3)OC(=O)[C@H](CC(C)C)OC(=O)CCNC2=O)cc1 [ARENASTATIN A], which IC50 is on record?
Its IC50 is 0.005 ng/mL (≈ 0.00824 nM).
